What was measured:
[1] = test system: TK-10 (Renal cancer); assay: NCI-60 screen (SRB, 48 h); conditions: Homo sapiens; for GI50: TK-10; for IC (TGI): TK-10, 48 h, read-out: TGI; for CC50: TK-10, read-out: LC50
[2] = test system: HL-60(TB) (Leukemia); assay: NCI-60 screen (SRB, 48 h); assay type: cell-based; conditions: Homo sapiens; for IC (TGI): 48 h
[3] = test system: MDA-MB-435 (Melanoma); assay: NCI-60 screen (SRB, 48 h); assay type: cell-based; conditions: Homo sapiens; for IC (TGI): MDA-MB-435, 48 h, read-out: TGI
[4] = test system: BT-549 (Breast cancer); assay: NCI-60 screen (SRB, 48 h); assay type: cell-based; conditions: Homo sapiens; for GI50: BT-549; for IC (TGI): BT-549, 48 h
[5] = test system: SF-539 (CNS cancer); assay: NCI-60 screen (SRB, 48 h); conditions: Homo sapiens; for GI50: SF-539; for IC (TGI): SF-539, 48 h, read-out: TGI; for CC50: SF-539, read-out: LC50
[6] = test system: SK-OV-3 (Ovarian cancer); assay: NCI-60 screen (SRB, 48 h); conditions: Homo sapiens; for GI50: SK-OV-3; for IC (TGI): SK-OV-3, 48 h, read-out: TGI; for CC50: SK-OV-3, read-out: LC50
[7] = test system: OVCAR-5 (Ovarian cancer); assay: NCI-60 screen (SRB, 48 h); conditions: Homo sapiens; for GI50: OVCAR-5; for IC (TGI): OVCAR-5, 48 h, read-out: TGI
[8] = test system: RPMI-8226 (Leukemia); assay: NCI-60 screen (SRB, 48 h); conditions: Homo sapiens; for GI50: RPMI-8226; for IC (TGI): RPMI-8226, 48 h, read-out: TGI
[9] = test system: U251 (CNS cancer); assay: NCI-60 screen (SRB, 48 h); conditions: for GI50: U-251; for IC (TGI): U-251, 48 h, read-out: TGI
[10] = test system: HT29 (Colon cancer); assay: NCI-60 screen (SRB, 48 h); conditions: Homo sapiens; for GI50: HT-29; for IC (TGI): HT-29, 48 h, read-out: TGI
[11] = test system: MCF-7 (breast carcinoma); assay: SRB cytotoxicity assay, 72 h; assay type: cell-based, human; conditions: Homo sapiens, MCF7; MCF-7, 72 h, cut-off 30 µM; read-out: EC50
Method in brief: (§1)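 EC50 values from SRB absorbance (570 nm) after TCA fixation, as percent surviving cells versus untreated controls. Compound exposure was 72 h at 0–30 µM, starting 24 h post-seeding, with final DMSO not above 0.5%.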

[12] = test system: A2780 (ovarian carcinoma); assay: SRB cytotoxicity assay, 72 h; assay type: cell-based, human; conditions: Homo sapiens; A2780, 72 h, cut-off 30 µM; read-out: EC50
Method in brief: as §1

[13] = test system: FaDu (hypopharyngeal carcinoma); assay: SRB cytotoxicity assay, 72 h; assay type: cell-based, human; conditions: Homo sapiens, cut-off 30 µM, read-out: EC50
Method in brief: as §1

[14] = test system: A375 (malignant melanoma); assay: SRB cytotoxicity assay, 72 h; assay type: cell-based, human; conditions: Homo sapiens, A-375, 72 h, A375, 72 h, cut-off 30 µM; read-out: EC50
Method in brief: as §1

[15] = test system: HT29 (colorectal carcinoma); assay: SRB cytotoxicity assay, 72 h; assay type: cell-based, human; conditions: Homo sapiens, HT-29; HT29, 72 h, cut-off 30 µM; read-out: EC50
Method in brief: as §1

[16] = test system: HCT-116 (Colon cancer); assay: NCI-60 screen (SRB, 48 h); conditions: Homo sapiens; for GI50: HCT-116; for activity at 10 µM: HCT-116, 48 h, read-out: Growth % of the Most Sensitive Cell Lines
[17] = test system: RXF 393 (Renal cancer); assay: NCI-60 screen (SRB, 48 h); conditions: Homo sapiens; for GI50: RXF 393; for IC (TGI): RXF 393, 48 h, read-out: TGI; for CC50: RXF 393, read-out: LC50
[18] = test system: CAKI-1 (Renal cancer); assay: NCI-60 screen (SRB, 48 h); conditions: Homo sapiens; for GI50: CAKI-1; for IC (TGI): CAKI-1, 48 h, read-out: TGI; for CC50: CAKI-1, read-out: LC50
[19] = test system: IGROV1 (Ovarian cancer); assay: NCI-60 screen (SRB, 48 h); conditions: Homo sapiens; for GI50: IGROV-1; for IC (TGI): IGROV-1, 48 h, read-out: TGI
[20] = test system: SR (Leukemia); assay: NCI-60 screen (SRB, 48 h); assay type: cell-based; conditions: Homo sapiens; for CC50: read-out: LC50 (the source's name)
[21] = test system: SF-268 (CNS cancer); assay: NCI-60 screen (SRB, 48 h); conditions: Homo sapiens; for GI50: SF-268; for IC (TGI): SF-268, 48 h, read-out: TGI; for CC50: SF-268, read-out: LC50
[22] = test system: NSC lung cancer subpanel; assay: NCI-60 screen, subpanel; conditions: Homo sapiens; for IC (TGI): 48 h, read-out: TGI MG_MID; for GI50: read-out: GI50 MG_MID; for CC50: read-out: LC50 MG_MID
[23] = test system: SK-MEL-5 (Melanoma); assay: NCI-60 screen (SRB, 48 h); conditions: Homo sapiens; for GI50: SK-MEL-5; for IC (TGI): SK-MEL-5, 48 h, read-out: TGI
[24] = test system: CCRF-CEM (Leukemia); assay: NCI-60 screen (SRB, 48 h); conditions: Homo sapiens; for CC50: read-out: LC50
[25] = test system: PC-3 (Prostate cancer); assay: NCI-60 screen (SRB, 48 h); conditions: Homo sapiens; for GI50: PC-3; for IC (TGI): PC-3, 48 h, read-out: TGI

## Cc1ccc(S(=O)(=O)OC[C@]23CCC(C)(C)C[C@H]2C2=CC[C@@H]4[C@@]5(C)CCCNC(C)(C)[C@@H]5CC[C@@]4(C)[C@]2(C)CC3)cc1 [Compound 15]
[1]
  GI50: 1770 nM
  IC (TGI): 3330 nM
  CC50: 6270 nM
[2]
  GI50: 1850 nM
  IC (TGI): 4060 nM
[3]; MDA-MB-435
  GI50: 1610 nM
[3]
  IC (TGI): 2970 nM
[4]
  GI50: 1900 nM
  IC (TGI): 3780 nM
[5]
  GI50: 1710 nM
  IC (TGI): 3150 nM
  CC50: 5790 nM
[6]
  GI50: 1760 nM
  IC (TGI): 3260 nM
  CC50: 6030 nM
[7]
  GI50: 1610 nM
  IC (TGI): 3010 nM
[8]
  GI50: 2030 nM
  IC (TGI): 4420 nM
[9]; Homo sapiens
  GI50: 1740 nM
  IC (TGI): 3290 nM
[10]
  GI50: 1640 nM
  IC (TGI): 3230 nM
[11]
  EC50: 2400 ± 100 nM
[12]
  EC50: 1480 ± 200 nM
[13]
  EC50: 2020 ± 200 nM
[14]
  EC50: 2360 ± 100 nM
[15]
  EC50: 2330 ± 200 nM
[16]
  GI50: 1800 nM
  activity at 10 µM: -83%
[17]
  GI50: 1380 nM
  IC (TGI): 2780 nM
  CC50: 5590 nM
[18]
  GI50: 1450 nM
  IC (TGI): 2820 nM
  CC50: 5460 nM
[19]
  GI50: 1410 nM
  IC (TGI): 3080 nM
[20]
  GI50: 340 nM
  CC50: > 100000 nM
[21]
  GI50: 2320 nM
  IC (TGI): 8440 nM
  CC50: 67900 nM
[22]
  IC (TGI): 3420 nM
  GI50: 3140 nM
  CC50: 53400 nM
[23]
  GI50: 1900 nM
  IC (TGI): 3680 nM
[24]
  GI50: 1930 nM
  CC50: > 100000 nM
[25]
  GI50: 1660 nM
  IC (TGI): 3160 nM

## Cc1ccc(S(=O)(=O)OC[C@@]2(C)CC[C@]3(C)CC[C@]4(C)C(=C3C2)C=C[C@@H]2[C@@]3(C)CCCNC(C)(C)[C@@H]3CC[C@]24C)cc1 [Compound 16]
[1]
  GI50: 1880 nM
  IC (TGI): 3590 nM
  CC50: 6850 nM
[2]
  GI50: 1980 nM
  IC (TGI): 4020 nM
[3]; MDA-MB-435
  GI50: 1640 nM
[3]
  IC (TGI): 3070 nM
[3]; MDA-MB-435, read-out: LC50 (the source's name)
  CC50: 5750 nM
[4]
  GI50: 1480 nM
  IC (TGI): 3140 nM
[5]
  GI50: 1710 nM
  IC (TGI): 3110 nM
  CC50: 5660 nM
[6]
  GI50: 1790 nM
  IC (TGI): 3250 nM
  CC50: 5910 nM
[7]
  GI50: 1770 nM
  IC (TGI): 3210 nM
[7]; OVCAR-5, read-out: LC50
  CC50: 5810 nM
[8]
  GI50: 2120 nM
  IC (TGI): 4630 nM
[8]; RPMI-8226, read-out: LC50
  CC50: > 100000 nM
[9]; Homo sapiens
  GI50: 1660 nM
  IC (TGI): 3170 nM
[9]; Homo sapiens, U-251, read-out: LC50
  CC50: 6070 nM
[9]; U251, 1 dose 10 µM
  Growth % of the Most Sensitive Cell Lines: −95.86%
[10]
  GI50: 1480 nM
  IC (TGI): 3080 nM
[11]
  EC50: 1540 ± 100 nM
[12]
  EC50: 2380 ± 100 nM
[13]
  EC50: 1520 ± 100 nM
[14]
  EC50: 1910 ± 100 nM
[15]
  EC50: 1540 ± 100 nM
[16]
  GI50: 1540 nM
  activity at 10 µM: -91.5%
[17]
  GI50: 1350 nM
  IC (TGI): 2860 nM
  CC50: 6050 nM
[18]
  GI50: 1610 nM
  IC (TGI): 3060 nM
  CC50: 5810 nM
[19]
  GI50: 1790 nM
  IC (TGI): 3430 nM
[20]
  GI50: 310 nM
  CC50: > 100000 nM
[21]
  GI50: 1950 nM
  IC (TGI): 4120 nM
  CC50: 8680 nM
[22]
  IC (TGI): 3360 nM
  GI50: 1720 nM
  CC50: 6230 nM
[23]
  GI50: 1820 nM
  IC (TGI): 3390 nM
[24]
  GI50: 2140 nM
  CC50: > 100000 nM
[24]; 48 h, read-out: TGI
  IC (TGI): 6060 nM
[25]
  GI50: 1530 nM
  IC (TGI): 2980 nM
[25]; PC-3, read-out: LC50
  CC50: 5820 nM

— paper PMC7914897, “Cytotoxic Potential of a-Azepano- and 3-Amino-3,4-SeCo-Triterpenoids” (International Journal of Molecular Sciences, 2021)
